According to patent US11140897B2, “Liquid-core capsules for pest control” (Katz Biotech AG, priority 2015, dated 2021):

Columns and labels:
[1] = active substance release from liquid-core capsules in two manufacturing variants (headspace sampling, GC-MS); format: physicochemical; conditions: 1 week
Method: The experiment was conducted in principle as in the model system described in Section D in terms of odor collection and analysis using gas chromatography with mass spectrometry coupling. The following table and FIG. 6 summarize the results of the experiment.

Lygus rugulipennis [2] = test: olfactometer experiments for attractant effect on true bugs; format: in vivo; conditions: for true bugs running in the direction of the attractant / attracting action: attractant concentration 0.01 μg/μL (FIG. 7)
Method: Comparative behavior studies were conducted on the bug species Lygus rugulipennis in the olfactometer for identifying suitable attractants (odors). The attracting action of a total of 28 different concentrations of substances and substance mixtures was determined in about 380 individual tests. A result was considered purely coincidental if 50% of the animals decided in favor of an odor and 50% decided against. The odor is considered attractive if more than about 65% of the animals move towards it. […] The certainty of the evaluation increases with the number of tests and is accepted after about 10 repetitions.

Lygus rugulipennis [3] = test: effect on true bugs after ingesting core liquid with active substance; format: in vivo
Method: Experiments were conducted with Lygus rugulipennis and the liquid-core capsules according to the invention, wherein an aqueous nutrient solution having 0.5% NeemAzal® T/S (biological active substance: azadirachtin 0.1%) was present in the core of the capsules. Another experiment was conducted with the chemical active substance acetamiprid (0.01%). When they had contact with the liquid-core capsules, the true bugs used their proboscis to pierce the outer shells of the liquid-core capsules and ingest at least some of the core solution. […] The animals were subjected to a 6-hour hunger phase prior to the beginning of the experiment. […] The lengthy dwell time of the proboscis in the capsule permits this conclusion. With the imago insects, this was an average of 160 seconds, 150 seconds with the nymphs. With the imago insects, this was preceded by a mean testing period (feeling the capsule with the proboscis) of about 30 seconds.
The true bugs ceased their activity nearly entirely about 1 day after ingesting the core liquid with the active substance azadirachtin and died after 5 days, on average. The chemical active substance acetamiprid took effect a few seconds after being ingested.

[4] = loss in mass of alginate model cylinders with additives in the hydrogel; format: physicochemical
Method: The following table summarizes the absolute losses in mass for alginate model cylinders (d=13 mm, h=13 mm) after 240 minutes, with the addition of various additives in their most suitable concentrations and the relative losses in mass compared to the losses in mass of the standard specimen without the additives (MCC—microcrystalline cellulose, EC—ethyl cellulose).

true bugs = test: electrophysiological examinations (electroantennography) of true bugs; conditions: higher concentration (10 μg/μL, FIG. 9)
Method: Electroantennography is a method for measuring the olfactory reactions of an insect by recording electrical signals on the antennae, wherein slow changes in receptor potential that are preferably recorded in the extracellular space within the insect antenna are analyzed. Complex odor mixtures may be investigated using this method. For instance, the use of electroantennography for identifying attractants for wasps is known from DE 11 2010 005 095 T5.
FIGS. 8 and 9 summarize the results of electrophysiological examinations of true bugs. Green leaf volatiles (Z)-3-hexenyl acetate, (Z)-3-hexen-1-ol, 1-hexenal, the terpenoids (E)-β-caryophyllene, methyl salicylate, ocimene, phenylacetaldehyde, nonanal, alpha-pinene, and geraniol were tested as plant odors, hexyl butyrate and (E)-2-hexenyl butyrate were tested as pheromones of insects, and a synthetic active substance mixture made of (Z)-3-hexen-1-ol, (E)-β-caryophyllene, and hexyl butyrate were tested. FIG. 8 provides the responses in female (a) and male (b) true bugs at an active substance concentration of 0.1 μg/μL. FIG. 9 provides the responses in female (a) and male (b) true bugs at an active substance concentration of 10 μg/μL.

[5] = core: nutrient solution with 0.5% NeemAzal T/S (azadirachtin 0.1%)

odor collected ([1]; capsules Type 1) [%] | quantity of odor per unit of time ([1]; capsules Type 1) [µg] | odor collected ([1]; capsules Type 2) [%] | quantity of odor per unit of time ([1]; capsules Type 2) [µg] | SMILES | true bugs running in the direction of the attractant / attracting action (Lygus rugulipennis [2]) | change of attracting effect in increased concentrations (Lygus rugulipennis [2]; in vivo) | other results
2.0 | 58.8 | 19.7 | 592.0 | CCCCCCOC(=O)CCC [Hexyl butyrate] | – | – | attraction in olfactometer experiments (Lygus rugulipennis [2]; in vivo): not preferred
– | – | – | – | C/C(=N\C#N)N(C)Cc1ccc(Cl)nc1 [acetamiprid] | – | – | time until active substance took effect after being ingested (Lygus rugulipennis [3]; acetamiprid 0.01% in core): a few seconds; time to death (Lygus rugulipennis [3]; acetamiprid 0.01% in core, after violent quivering): a few minutes later
– | – | – | – | CCCCCCCCCCCCCCCCCC(=O)O [Stearic acid] | – | – | Loss in mass [%] after 240 min with additive (“Specimen”) ([4]; alginate model cylinders d=13 mm, h=13 mm, additive in its most suitable concentration): 6.92%; Specimen loss in mass after 240 min compared to Standard loss in mass [%] ([4]; relative to standard specimen without additive): −6.87%
– | – | – | – | CCCCCCCCC=O [nonanal] | about 45% | increases | attracting action (Lygus rugulipennis [2]; concentration 1 μg/μL): about 60%; registration by antennal chemoreceptors (true bugs): registered
6.8 | 205.2 | 26.0 | 781.0 | C=C1CC/C=C(\C)CC[C@@H]2[C@@H]1CC2(C)C [(E)-b-caryophyllene] | 80% | reduced | –
0.5 | 15.2 | 7.8 | 235.1 | CC/C=C\CCO [(Z)-3-hexen-1-ol] | 80% | reduced | –
– | – | – | – | O=CCc1ccccc1 [phenylacetaldehyde] | – | – | registration by antennal chemoreceptors (true bugs): registered
– | – | – | – | C/C=C(\C)C(=O)O[C@H]1C[C@@H](OC(C)=O)[C@@]2(C(=O)OC)CO[C@H]3[C@@H](O)[C@@](C)([C@]45O[C@@]4(C)[C@H]4C[C@@H]5O[C@@H]5OC=C[C@@]54O)[C@H]4[C@]1(CO[C@]4(O)C(=O)OC)[C@@H]32 [azadirachtin] | – | – | time to death, on average (Lygus rugulipennis [3]; [5]): 5 days; time until activity ceased nearly entirely after ingesting the core liquid (Lygus rugulipennis [3]; [5]): about 1 day
